Literature values in patent US20030118652A1 (priority 2001, published 2003).
Blank lines part the entries; values can stand above or below the compound they belong to.

How the values were obtained:
[1] = target: cytochrome P450 isoform CYP2D6 (Homo sapiens, UniProt P10635); details: (R)- versus (S)-bisoprolol; stated as 'it is believed'
[2] = (R)- versus (S)-bisoprolol
[3] = following administration of racemic bisoprolol; (S)- versus (R)-bisoprolol

Chain of cytochrome P450 isoform CYP2D6 (P10635 whole entry, canonical isoform): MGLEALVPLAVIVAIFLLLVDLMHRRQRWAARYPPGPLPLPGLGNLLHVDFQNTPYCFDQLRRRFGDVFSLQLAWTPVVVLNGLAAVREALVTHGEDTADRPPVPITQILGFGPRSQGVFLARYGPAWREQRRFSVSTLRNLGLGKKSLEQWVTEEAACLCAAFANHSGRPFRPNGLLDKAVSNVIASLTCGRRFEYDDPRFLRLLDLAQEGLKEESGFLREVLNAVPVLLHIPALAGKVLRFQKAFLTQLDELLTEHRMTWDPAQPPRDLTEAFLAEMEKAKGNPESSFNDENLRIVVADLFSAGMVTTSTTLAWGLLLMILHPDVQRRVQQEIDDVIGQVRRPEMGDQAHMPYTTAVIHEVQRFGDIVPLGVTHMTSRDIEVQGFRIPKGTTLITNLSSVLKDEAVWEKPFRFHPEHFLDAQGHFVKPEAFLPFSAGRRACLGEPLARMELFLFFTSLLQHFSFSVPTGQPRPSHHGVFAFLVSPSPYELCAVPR

SMILES: CC(C)NCC(O)COc1ccc(COCCOC(C)C)cc1 (racemic) [racemic bisoprolol, 1-[4-[[2-(1-methylethoxy)ethoxy]-methyl]phenoxy]-3-[(1-methylethyl)amino]-2-propanol]
side effects on the peripheral circulation (Bailliart et al. 1987): adverse side effects on the peripheral circulation | bronchoconstrictor side effects (Dorow et al. 1986): bronchoconstrictor effects, including wheeziness and breathlessness | effects on carbohydrate metabolism (Janka et al. 1986, patients with diabetes): effects on carbohydrate metabolism that are deleterious to patients with diabetes

SMILES: CC(C)NC[C@@H](O)COc1ccc(COCCOC(C)C)cc1 [(R)-bisoprolol]
rate of oxidative metabolism by CYP2D6 [1]: greater rate | rate of renal clearance [2]: greater

elimination half-life [3]: slightly higher
SMILES: CC(C)NC[C@H](O)COc1ccc(COCCOC(C)C)cc1 [(S)-bisoprolol]
